Results as given in paper PMC12645469 (Nature structural & molecular biology, 2024).
Blank lines part the entries; values can stand above or below the molecule they belong to.

Assays:
[1] = target: T1, NaDC3 (Homo sapiens, UniProt Q8WWT9); assay: intrinsic tryptophan fluorescence quenching; type: binding
T1 sequence (Q8WWT9 1-602): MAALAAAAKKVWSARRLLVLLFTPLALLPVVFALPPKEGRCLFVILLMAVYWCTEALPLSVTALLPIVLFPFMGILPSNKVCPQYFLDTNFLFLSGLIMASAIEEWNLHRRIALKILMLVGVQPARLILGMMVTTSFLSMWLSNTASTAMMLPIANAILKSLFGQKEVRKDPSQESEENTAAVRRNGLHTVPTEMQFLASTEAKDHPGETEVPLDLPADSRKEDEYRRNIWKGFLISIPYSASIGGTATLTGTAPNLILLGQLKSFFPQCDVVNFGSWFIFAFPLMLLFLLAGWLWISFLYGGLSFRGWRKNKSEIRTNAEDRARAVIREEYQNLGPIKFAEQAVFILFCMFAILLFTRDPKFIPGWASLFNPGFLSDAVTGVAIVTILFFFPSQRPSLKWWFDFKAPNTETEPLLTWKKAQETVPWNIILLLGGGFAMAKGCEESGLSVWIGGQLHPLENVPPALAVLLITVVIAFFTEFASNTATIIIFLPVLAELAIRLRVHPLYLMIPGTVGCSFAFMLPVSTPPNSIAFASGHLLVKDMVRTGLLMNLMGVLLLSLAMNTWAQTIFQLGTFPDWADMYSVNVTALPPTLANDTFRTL

[2] = target: T1, NaDC3; assay: cryo-EM structure; type: cell-based
[3] = target: NaDC3 (Homo sapiens, UniProt Q8WWT9, F93Y)
[4] = target: T1, NaDC3; assay: biochemical
[5] = target: the molecule itself; assay: cryo-EM structure

Sequence of NaDC3 (Homo sapiens, UniProt Q8WWT9, F93Y) (Q8WWT9 whole entry F93Y): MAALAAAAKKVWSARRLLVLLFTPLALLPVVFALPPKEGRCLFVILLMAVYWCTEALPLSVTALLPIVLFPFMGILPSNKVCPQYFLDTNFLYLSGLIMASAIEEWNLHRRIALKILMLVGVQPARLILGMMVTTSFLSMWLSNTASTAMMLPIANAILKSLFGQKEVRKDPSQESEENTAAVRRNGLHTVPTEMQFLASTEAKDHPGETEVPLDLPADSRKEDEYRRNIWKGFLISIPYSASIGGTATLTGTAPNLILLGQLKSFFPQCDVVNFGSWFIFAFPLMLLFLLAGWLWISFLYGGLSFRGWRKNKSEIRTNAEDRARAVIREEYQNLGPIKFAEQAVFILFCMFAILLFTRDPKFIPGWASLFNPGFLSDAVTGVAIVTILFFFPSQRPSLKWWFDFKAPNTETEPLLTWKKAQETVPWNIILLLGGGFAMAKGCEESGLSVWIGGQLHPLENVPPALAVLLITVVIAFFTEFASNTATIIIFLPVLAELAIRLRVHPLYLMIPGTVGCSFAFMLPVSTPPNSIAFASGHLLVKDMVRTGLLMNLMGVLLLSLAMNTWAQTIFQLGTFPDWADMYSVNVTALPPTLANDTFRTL

Kd [1]: 10.2 ± 5.6 µM
Molecule: CC(C(=O)O)C(C)C(=O)O (centres unmarked) [DMS, 2,3-dimethylsuccinate]

IC50 [2]: 39.2 µM
Molecule: COc1ncc(C)cc1CC[C@@](O)(CC(=O)O)C(=O)O [PF4a, PF-06761281]

Km [3]: 10.5 ± 5.9 µM | Kd [4]: 17.6 ± 9.8 µM
Molecule: O=C(O)CCC(=O)O [Succ, succinate]

B1: human high affinity sodium-dicarboxylate cotransporter NaDC3 (natural protein)
chain: MAALAAAAKKVWSARRLLVLLFTPLALLPVVFALPPKEGRCLFVILLMAVYWCTEALPLSVTALLPIVLFPFMGILPSNKVCPQYFLDTNFLFLSGLIMASAIEEWNLHRRIALKILMLVGVQPARLILGMMVTTSFLSMWLSNTASTAMMLPIANAILKSLFGQKEVRKDPSQESEENTAAVRRNGLHTVPTEMQFLASTEAKDHPGETEVPLDLPADSRKEDEYRRNIWKGFLISIPYSASIGGTATLTGTAPNLILLGQLKSFFPQCDVVNFGSWFIFAFPLMLLFLLAGWLWISFLYGGLSFRGWRKNKSEIRTNAEDRARAVIREEYQNLGPIKFAEQAVFILFCMFAILLFTRDPKFIPGWASLFNPGFLSDAVTGVAIVTILFFFPSQRPSLKWWFDFKAPNTETEPLLTWKKAQETVPWNIILLLGGGFAMAKGCEESGLSVWIGGQLHPLENVPPALAVLLITVVIAFFTEFASNTATIIIFLPVLAELAIRLRVHPLYLMIPGTVGCSFAFMLPVSTPPNSIAFASGHLLVKDMVRTGLLMNLMGVLLLSLAMNTWAQTIFQLGTFPDWADMYSVNVTALPPTLANDTFRTL
stoichiometry N [5]: 2
